“And” between values parts separate entries of the source, which are not always exact repeats. Equal entries are not always repeated. Marks after values point to notes of the source that are not given here.
Experiments:
[1] = system: disks of whole human skin; experiment: Nature of the neosynthesized epidermal lipids (thin layer chromatography of 14C-labeled lipids) in whole human skin disks; format: cell-based; parameters: neosynthesis of cholesteryl sulfate, percentage of the control group: concentration or dose not given beside the values
Procedure: (§1) The study is performed in vitro in an organotypical model of whole human skin in culture. Two techniques successively used: • measurement of the incorporation of acetate radiolabeled with carbon 14 into the neosynthesized epidermal lipids in toto; • analysis by thin layer chromatography to separate the main classes of neosynthesized radiolabeled epidermal lipids.
(§2) A fragment of human skin was collected after an abdominal plastic surgery-operation. This was performed on a person (subject I0129). Skin disks 8 mm in diameter were cut out using a sample punch.
(§3) The skin disks are placed in gondolas. The gondolas are placed in culture wells containing MCF medium, composed of MEM/M199 medium (3/4, 1/4; v/v) supplemented with penicillin (50 IU/ml), streptomycin (50 μg/ml), sodium bicarbonate (0.2%, w/v) and FCS (2%, v/v).
(§4) The test products are tested undiluted. They are placed at the center of each human skin disk, in a proportion of 10 mg/cm^2. The incubation medium for the human skin disks (MIF medium) is composed of MCF medium containing 1 μCi/ml of acetate labeled with carbon 14 (Amersham, specific activity: 57 mCi/mmol).
(§5) The lactic acid is used in topical application (10 mg/cm^2).
(§6) The human skin disks are incubated in the presence of the test products and the reference products for 18 hours at 37° C. in a humid atmosphere containing 5% CO2.
(§7) Each experimental condition is performed in quadruplicate.
Starting with the samples of extracted lipids, 20 μl aliquots, corresponding to 3 700 cpm, are placed on silica 60 (Merck) chromatography plates. These plates are developed in three successive solvents: • 38/2/10 chloroform/acetone/methanol (v/v/v), • 40/5/5 chloroform/acetone/methanol (v/v/v), • 36/10/3/1 chloroform/ethyl acetate/ether/methanol (v/v/v/v).
This system makes it possible to separate the cholesteryl sulfate, the cerebrosides, the ceramides, the cholesterol and the tri-+diglycerides. The most polar lipids, referred to hereinbelow as “polar lipids”, remain on the base line.
The silica plates are then placed in exposure with films for autoradiography for 15 days (Amersham, Hyperfilm beta max).
The position of the various classes of lipids—polar lipids, cholesteryl sulfate, cerebrosides, ceramides 1 and 2, cholesterol and tri-+diglycerides—is determined using suitable standards.
The results are expressed as percentages of the radioactivity of the total lipids neosynthesized and deposited on the TLC.

[2] = system: disks of whole human skin; experiment: Neosynthesis of the total epidermal lipids (14C-acetate incorporation) in organotypical model of whole human skin in culture; format: cell-based; conditions: incubation 18 hours
Procedure: as §1, §2, §3, §4, §5, §6, §7
At the end of the incubation, the human skin disks are rinsed thoroughly with PBS buffer. The epidermis of each skin disk is dissociated from the dermis by means of a controlled heat shock (MilliQ water, 2 min, 62° C.) The epidermises thus dissociated are digested with trypsin (ICN, 1%, w/v) overnight at 37° C. The cell dissociation is facilitated by the action of ultrasound. […]
The radioactivity of each sample, corresponding to the amount of acetate incorporated into the neosynthesized lipids, is measured by liquid scintillation. […]

[3] = percentage of the radiolabeled total lipids applied onto the TLC, mean of 4 disks, 18 hours
[4] = percentage of the radiolabeled total lipids applied onto the TLC, single disks, 18 hours

Substance: EGF: epidermal growth factor obtained from R&D Systems, reference product tested at 10 ng/ml
- neosynthesis of ceramide 1, percentage of the control group ([1]; 18 hours): 120%
- neosynthesis of ceramide 2, percentage of the control group ([1]; 18 hours): 155%
- neosynthesis of cerebrosides, percentage of the control group ([1]; 18 hours): 125%
- neosynthesis of cholesterol, percentage of the control group ([1]; 18 hours): 128%
- neosynthesis of cholesteryl sulfate, percentage of the control group ([1]; 18 hours): 54%
- neosynthesis of polar lipids, percentage of the control group ([1]; 18 hours): 119%
- neosynthesis of ceramide 1, mean [1, 3]: 2.72%
- neosynthesis of ceramide 2, mean [1, 3]: 3.00* %
- neosynthesis of cerebrosides, mean [1, 3]: 3.87%
- neosynthesis of cholesteryl sulfate, mean [1, 3]: 3.00* %
- neosynthesis of polar lipids, mean [1, 3]: 38.23%
- neosynthesis of tri- + diglycerides, mean [1, 3]: 45.10%
- neosynthesis of ceramide 1, individual skin disk [1, 4]: 2.02% and 1.41% and 3.41% and 4.02%
- neosynthesis of ceramide 2, individual skin disk [1, 4]: 3.81% and 2.38% and 2.74% and 3.05%
- neosynthesis of cerebrosides, individual skin disk [1, 4]: 2.87% and 3.82% and 4.77% and 4.02%
- neosynthesis of cholesterol, individual skin disk [1, 4]: 7.07% and 9.46% and 7.86% and 9.99%
- neosynthesis of cholesteryl sulfate, individual skin disk [1, 4]: 2.31% and 3.69% and 3.44% and 2.57%
- neosynthesis of polar lipids, individual skin disk [1, 4]: 57.27% and 34.42% and 27.69% and 33.53%
- neosynthesis of tri- + diglycerides, individual skin disk [1, 4]: 42.67% and 44.82% and 50.08% and 42.83%
- increase of the neosynthesis of ceramide 2 ([1]; versus control): 55%
- reduction of the neosynthesis of cholesteryl sulfate ([1]; versus control): 46%
- neosynthesis of the total epidermal lipids, percentage of the control group ([2]; topical 10 mg/cm2, EGF 10 ng/ml): 122%
- neosynthesis of the total epidermal lipids, mean ([2]; mean of 4 disks, topical 10 mg/cm2, EGF 10 ng/ml): 4080.02 cpm/mg of epidermis
- neosynthesis of the total epidermal lipids, individual skin disk ([2]; single disks of quadruplicate, compositions and lactic acid undiluted 10 mg/cm2 topical, EGF 10 ng/ml in medium): 3104.63 cpm/mg of epidermis and 5043.66 cpm/mg of epidermis and 3606.76 cpm/mg of epidermis and 4565.02 cpm/mg of epidermis
